In this test the test system is wounded mouse skin. In words: Wound-healing effect in wounded skin mouse model (topical, once daily for 10 days). The test is classed as in vivo.
[1] abbreviates: group mean (X, 5 mice), topical x10, dose/mouse: extract 50 μg, fraction 3 10 μg, saponin I 5 μg, CGS-21680 10 μg.
Where [2] appears, read: group mean (X, 5 mice), topical x10, dose/mouse: extract 50 μg, fraction 3 10 μg, saponin I 5 μg, CGS-21680 10 μg, * P<0.05 vs vehicle.
The mark [3] stands for this setting: individual mouse (N 1-5), same doses as group means.

SMILES strings stand for the structures. Values joined by “and” are separate entries in the source; they are usually repeats but may differ in a detail not shown here. Equal values may be shown once.

Turning to `CCNC(=O)[C@H]1O[C@@H](n2cnc3c(N)nc(NCCc4ccc(CCC(=O)O)cc4)nc32)[C@H](O)[C@@H]1O` [CGS-21680, reference compound], the “Wound Closure Rate (%) Day 1” value under setting [1] is reported as 0.0%. In addition, under setting [2], the “Wound Closure Rate (%) Day 3” value is on record as “*45.1%”, the “Wound Closure Rate (%) Day 5” value is “*58.5%”, the “Wound Closure Rate (%) Day 7” value is listed as “*68.5%” and the “Wound Closure Rate (%) Day 9” value is reported as “*79.0%”. In addition, under setting [2], the “Wound Closure Rate (%) Day 11” value is reported as “*83.1%” and the “CT50 (time required for wound closure)” value was “*5.2 Days”. Besides, under setting [3], the “Wound Closure Rate (%) Day 1” value was 0.0%; the “Wound Closure Rate (%) Day 3” value is 46.7% (2×) and 36.0% and 54.4% and 41.6%; the “Wound Closure Rate (%) Day 5” value is 62.5% and 59.3% and 55.5% and 59.6% and 55.8%; the “Wound Closure Rate (%) Day 7” value is 71.2% and 66.5% and 62.7% and 71.8% and 70.3%. For the same compound, under setting [3], the “Wound Closure Rate (%) Day 9” value was 79.9% and 74.7% and 79.7% and 81.6% and 79.2%; the “Wound Closure Rate (%) Day 11” value is 85.6% and 84.6% and 78.3% and 82.9% and 84.3%; the “CT50 (time required for wound closure)” value was 5.0 days and 5.6 days and 5.2 days and 5.1 days and 5.3 days.

Turning to `CC1OC(OC2C(O)C(C(=O)O)OC(OC3CCC4(C)C(CCC5(C)C4CC=C4C6CC(C)(C)CCC6(C(=O)OC6OC(C)C(O)C(O)C6OC6OC(C)C(OC7OCC(O)C(O)C7O)C(OC7OC(CO)C(O)C(OC8OCC(O)C(O)C8O)C7O)C6O)CCC45C)C3(C)C=O)C2OC2OC(CO)C(O)C(O)C2O)C(O)C(O)C1O` [Momordica Saponin I, 3-O-beta-D-Galactopyranosyl (1->2)-[alpha-L-rhamnopyranosyl (1->3)]-beta-D-glucuronopyranosido-28-O-beta-D-xylopyranosyl (1->3)-beta-D-glucopyranosyl (1->3)-[beta-D-xylopyranosyl (1->4)]-alpha-L-rhamnopyranosyl (1->2)-beta-D-fucopyranosyl gypsogenin], the “Wound Closure Rate (%) Day 1” value under setting [1] came out at 0.0%. Under setting [2], the “Wound Closure Rate (%) Day 3” value is on record as “*40.1%”, the “Wound Closure Rate (%) Day 5” value is recorded as “*53.0%”, the “Wound Closure Rate (%) Day 7” value was “*66.1%” and the “Wound Closure Rate (%) Day 9” value is on record as “*77.3%”. For the same compound, under setting [2], the “Wound Closure Rate (%) Day 11” value is “*83.4%” and the “CT50 (time required for wound closure)” value is “*5.6 Days”. Moreover, under setting [3], the “Wound Closure Rate (%) Day 1” value is listed as 0.0%; the “Wound Closure Rate (%) Day 3” value was 32.9% and 45.4% (2×) and 31.2% and 45.6%; the “Wound Closure Rate (%) Day 5” value was 54.4% and 54.8% and 48.8% and 51.4% and 55.5%; the “Wound Closure Rate (%) Day 7” value is 69.9% and 71.5% and 58.8% and 62.9% and 67.5%. Further, under setting [3], the “Wound Closure Rate (%) Day 9” value is 80.8% and 80.4% and 69.4% and 75.6% and 80.5%; the “Wound Closure Rate (%) Day 11” value is 85.0% and 88.3% and 78.1% and 84.6% and 81.1%; the “CT50 (time required for wound closure)” value is 5.5 days and 5.2 days and 6.3 days and 5.6 days and 5.3 days. Also, the wound-healing effect result (overall statement on Table 2 and FIG. 1) was “superior wound-healing effects”.

Values taken from patent publication US20100298251A1, “WOUND-HEALING AGENT CONTAINING MOMORDICAE SEMEN EXTRACT” (priority 2007, published 2010).
